Like-named read-outs stand apart in the source and are kept apart here.
Columns and labels:
[1] = target: human NaV1.1 (Homo sapiens (Human), UniProt P35498); assay: Sodium Influx Assay (Flux), NaV1.1; format: cell-based; details: Trex HEK293 cells, ANG2 dye; arithmetic mean
[2] = target: human NaV1.6 (Homo sapiens (Human), UniProt Q9UQD0); assay: Sodium Influx Assay (Flux), NaV1.6
[3] = target: human NaV1.5 (Homo sapiens (Human), UniProt Q14524); assay: cell-based
[4] = target: human NaV1.6 (SCN8A) (Homo sapiens (Human), UniProt Q9UQD0); assay: Electrophysiological Assay (EP, patch voltage clamp), NaV1.6; format: cell-based; details: HEK-293 cells, whole-cell patch clamp, inactivated state; arithmetic mean
Description: Patch voltage clamp electrophysiology allows for the direct measurement and quantification of block of voltage-gated sodium channels (Nav's), and allows the determination of the time- and voltage-dependence of block which has been interpreted as differential binding to the resting, open, and inactivated states of the sodium channel (Hille, B., Journal of General Physiology (1977), 69: 497-515).
Nav1.1, Nav1.5 and Nav1.6 cDNAs (NM_001165964 (SCN1A), NM_000335 (SCN5A) and NM_014191 (SCN8A), respectively) were stably expressed in HEK-293 cells.
Sodium currents were measured using the patch clamp technique in the whole-cell configuration using either a PatchXpress automated voltage clamp or manually using an Axopatch 200B (Axon Instruments) or Model 2400 (A-M systems) amplifier. […] Control sodium currents were measured in 0.5% DMSO. […]
Currents were recorded at 40 kHz sampling frequency, filtered at […], and stored using a Digidata-1322A analogue/digital interface with the pClamp software (Axon Instruments). […]
The membrane potential was maintained at a voltage where inactivation of the channel is complete. The voltage is then stepped back to a very negative (Vhold=−150 mV) voltage for 20 ms and then a test pulse is applied to quantify the compound block. […]

[5] = target: human NaV1.1 (SCN1A) (Homo sapiens (Human), UniProt P35498); assay: Electrophysiological Assay (EP, patch voltage clamp), NaV1.1; format: cell-based; details: HEK-293 cells, whole-cell patch clamp, inactivated state; arithmetic mean
Method: Sodium currents were measured using the patch clamp technique in the whole-cell configuration using either a PatchXpress automated voltage clamp or manually using an Axopatch 200B (Axon Instruments) or Model 2400 (A-M systems) amplifier. […] In some studies, the external sodium was reduced by equimolar replacement with choline. […] All recordings were performed at ambient temperature in a bath chamber with a volume of 150 μL. Control sodium currents were measured in 0.5% DMSO. Controls and representative compounds of the invention were applied to the recording chamber through a 4-pinch or 8-pinch valve bath perfusion system manufactured by ALA Scientific Instruments.
Series resistance compensation was applied (60-80%). […] All statistics in this study are given as mean±SD.
The membrane potential was maintained at a voltage where inactivation of the channel is complete. The voltage is then stepped back to a very negative (Vhold=−150 mV) voltage for 20 ms and then a test pulse is applied to quantify the compound block. […] The percent decrease in sodium current following wash-on of compound was taken as the percent block of sodium channels.

[6] = read-out: Flux NaV1.6 IC50, Trex HEK293 cells, ANG2 dye, arithmetic mean

Sequence of human NaV1.5 (Q14524 other isoform, or with tags, fused parts or gaps): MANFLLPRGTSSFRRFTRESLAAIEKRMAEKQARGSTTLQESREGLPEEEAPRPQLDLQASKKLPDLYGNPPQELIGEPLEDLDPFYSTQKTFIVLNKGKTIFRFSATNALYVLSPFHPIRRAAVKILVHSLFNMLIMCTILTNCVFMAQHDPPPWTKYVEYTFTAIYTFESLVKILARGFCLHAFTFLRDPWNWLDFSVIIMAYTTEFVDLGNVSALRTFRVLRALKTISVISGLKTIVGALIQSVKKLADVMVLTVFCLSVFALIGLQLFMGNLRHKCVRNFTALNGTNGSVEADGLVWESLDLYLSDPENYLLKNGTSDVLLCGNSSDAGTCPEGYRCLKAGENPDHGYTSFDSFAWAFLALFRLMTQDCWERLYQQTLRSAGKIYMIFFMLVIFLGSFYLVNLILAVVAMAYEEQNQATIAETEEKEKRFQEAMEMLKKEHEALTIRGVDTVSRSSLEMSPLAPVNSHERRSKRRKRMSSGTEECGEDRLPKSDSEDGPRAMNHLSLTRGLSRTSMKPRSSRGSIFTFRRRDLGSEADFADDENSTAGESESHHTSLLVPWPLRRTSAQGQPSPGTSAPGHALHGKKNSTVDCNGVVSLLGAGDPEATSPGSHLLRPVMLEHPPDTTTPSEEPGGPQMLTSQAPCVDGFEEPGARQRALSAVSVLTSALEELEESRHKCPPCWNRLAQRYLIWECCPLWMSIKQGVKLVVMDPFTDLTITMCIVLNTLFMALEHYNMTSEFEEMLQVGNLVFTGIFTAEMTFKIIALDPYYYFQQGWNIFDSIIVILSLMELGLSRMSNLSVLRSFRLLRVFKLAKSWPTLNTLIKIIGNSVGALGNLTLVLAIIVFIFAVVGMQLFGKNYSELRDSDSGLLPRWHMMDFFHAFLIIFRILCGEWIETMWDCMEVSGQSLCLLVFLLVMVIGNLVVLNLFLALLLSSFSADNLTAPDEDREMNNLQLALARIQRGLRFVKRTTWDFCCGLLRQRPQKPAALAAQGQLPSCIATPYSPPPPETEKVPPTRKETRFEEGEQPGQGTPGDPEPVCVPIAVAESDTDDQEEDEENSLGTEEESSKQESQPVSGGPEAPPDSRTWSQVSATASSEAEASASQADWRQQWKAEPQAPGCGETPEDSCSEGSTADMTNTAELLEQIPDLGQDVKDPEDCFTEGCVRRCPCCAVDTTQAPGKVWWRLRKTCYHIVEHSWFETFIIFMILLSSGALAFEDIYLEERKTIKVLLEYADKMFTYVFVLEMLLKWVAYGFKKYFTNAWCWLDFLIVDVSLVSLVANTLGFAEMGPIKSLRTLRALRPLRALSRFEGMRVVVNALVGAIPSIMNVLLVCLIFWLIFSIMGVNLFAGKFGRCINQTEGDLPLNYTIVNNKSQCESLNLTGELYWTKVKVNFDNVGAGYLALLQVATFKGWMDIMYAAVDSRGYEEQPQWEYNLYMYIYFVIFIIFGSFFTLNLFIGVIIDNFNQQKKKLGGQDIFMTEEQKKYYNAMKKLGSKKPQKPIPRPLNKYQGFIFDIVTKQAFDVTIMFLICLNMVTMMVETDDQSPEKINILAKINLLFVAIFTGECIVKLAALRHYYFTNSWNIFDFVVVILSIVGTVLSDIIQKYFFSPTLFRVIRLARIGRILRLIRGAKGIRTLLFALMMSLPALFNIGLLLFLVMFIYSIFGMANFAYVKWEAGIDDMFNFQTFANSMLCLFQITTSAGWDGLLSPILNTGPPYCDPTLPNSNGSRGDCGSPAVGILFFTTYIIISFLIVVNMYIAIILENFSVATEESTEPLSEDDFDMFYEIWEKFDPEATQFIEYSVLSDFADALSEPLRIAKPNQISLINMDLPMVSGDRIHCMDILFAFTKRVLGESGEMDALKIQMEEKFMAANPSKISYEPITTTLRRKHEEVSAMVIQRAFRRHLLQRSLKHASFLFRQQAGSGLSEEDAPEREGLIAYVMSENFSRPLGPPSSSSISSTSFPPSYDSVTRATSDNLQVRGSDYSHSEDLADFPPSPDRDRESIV
Sequence of human NaV1.6 (SCN8A) (Q9UQD0 whole entry): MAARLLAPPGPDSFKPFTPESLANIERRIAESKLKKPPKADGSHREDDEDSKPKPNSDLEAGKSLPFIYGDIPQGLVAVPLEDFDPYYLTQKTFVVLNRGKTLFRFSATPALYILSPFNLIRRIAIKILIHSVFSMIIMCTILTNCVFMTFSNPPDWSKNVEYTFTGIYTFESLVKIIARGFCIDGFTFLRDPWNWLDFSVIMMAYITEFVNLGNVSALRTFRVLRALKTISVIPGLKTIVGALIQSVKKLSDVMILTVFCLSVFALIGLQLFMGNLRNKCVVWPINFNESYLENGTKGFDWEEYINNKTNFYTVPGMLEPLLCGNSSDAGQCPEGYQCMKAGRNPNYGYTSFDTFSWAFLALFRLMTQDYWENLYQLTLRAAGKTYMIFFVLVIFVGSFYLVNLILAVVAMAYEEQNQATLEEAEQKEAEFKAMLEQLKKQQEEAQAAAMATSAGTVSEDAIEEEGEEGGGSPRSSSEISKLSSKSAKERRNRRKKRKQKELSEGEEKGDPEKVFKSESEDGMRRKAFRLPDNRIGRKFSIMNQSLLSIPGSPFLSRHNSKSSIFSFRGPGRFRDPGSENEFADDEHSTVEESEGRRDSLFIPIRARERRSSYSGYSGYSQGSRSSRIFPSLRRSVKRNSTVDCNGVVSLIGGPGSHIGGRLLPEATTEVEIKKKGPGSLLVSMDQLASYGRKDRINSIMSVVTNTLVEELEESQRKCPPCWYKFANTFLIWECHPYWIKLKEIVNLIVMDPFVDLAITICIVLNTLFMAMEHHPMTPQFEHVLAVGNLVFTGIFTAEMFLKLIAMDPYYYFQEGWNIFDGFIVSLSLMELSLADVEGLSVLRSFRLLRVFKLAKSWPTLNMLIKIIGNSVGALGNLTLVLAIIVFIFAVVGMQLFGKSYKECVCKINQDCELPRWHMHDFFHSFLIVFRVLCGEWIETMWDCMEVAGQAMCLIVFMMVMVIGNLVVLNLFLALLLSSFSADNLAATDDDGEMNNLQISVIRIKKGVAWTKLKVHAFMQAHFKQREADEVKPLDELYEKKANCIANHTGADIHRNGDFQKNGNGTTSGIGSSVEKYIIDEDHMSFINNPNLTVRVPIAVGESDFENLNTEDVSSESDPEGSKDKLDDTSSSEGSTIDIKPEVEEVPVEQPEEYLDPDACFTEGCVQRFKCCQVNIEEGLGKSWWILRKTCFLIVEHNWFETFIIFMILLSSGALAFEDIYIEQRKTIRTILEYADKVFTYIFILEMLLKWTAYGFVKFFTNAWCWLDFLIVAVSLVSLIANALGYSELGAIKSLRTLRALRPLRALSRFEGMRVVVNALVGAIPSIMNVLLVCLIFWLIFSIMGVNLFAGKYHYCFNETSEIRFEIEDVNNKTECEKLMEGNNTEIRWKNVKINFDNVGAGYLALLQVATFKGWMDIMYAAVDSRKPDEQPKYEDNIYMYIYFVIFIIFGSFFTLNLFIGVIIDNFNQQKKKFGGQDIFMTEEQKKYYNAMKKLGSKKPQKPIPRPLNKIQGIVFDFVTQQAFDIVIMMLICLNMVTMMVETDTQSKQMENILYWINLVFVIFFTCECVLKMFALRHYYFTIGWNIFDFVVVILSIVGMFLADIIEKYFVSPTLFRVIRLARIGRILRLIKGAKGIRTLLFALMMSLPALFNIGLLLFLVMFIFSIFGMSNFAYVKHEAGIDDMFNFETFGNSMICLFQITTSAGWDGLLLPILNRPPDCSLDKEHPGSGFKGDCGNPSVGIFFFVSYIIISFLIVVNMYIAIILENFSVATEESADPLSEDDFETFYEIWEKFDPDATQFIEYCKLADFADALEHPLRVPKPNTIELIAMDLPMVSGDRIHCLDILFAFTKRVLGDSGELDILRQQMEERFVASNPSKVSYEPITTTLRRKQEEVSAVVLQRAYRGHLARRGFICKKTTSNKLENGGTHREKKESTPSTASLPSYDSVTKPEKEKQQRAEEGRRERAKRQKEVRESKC

| SMILES | IC50 [1] [µM] | IC50 [2, 6] [µM] | IC50 [3] [µM] | IC50 [2] [µM] | IC50 [4] [µM] | IC50 [5] [µM] |
| --- | --- | --- | --- | --- | --- | --- |
| C[C@@H]1[C@H](N(C)c2cc(F)c(S(=O)(=O)Nc3cscn3)cc2Cl)CCN1Cc1ccccc1 (racemic) [Example 309, rac-4-(((2R,3R)-1-benzyl-2-methylpyrrolidin-3-yl)(methyl)amino)-5-chloro-2-fluoro-N-(thiazol-4-yl)benzenesulfonamide] | 8.44 | 6.86 | – | – | – | – |
| C[C@H]1C[C@@H](Oc2ccc(S(=O)(=O)Nc3nccs3)cc2Cl)CCN1Cc1ccccc1 (relative stereo) [Example 72, 4-((cis-1-benzyl-2-methylpiperidin-4-yl)oxy)-3-chloro-N-(thiazol-2-yl)benzenesulfonamide] | 6.81 | – | 13.5 | 6.07 | – | – |
| Cc1cccc(CN2CC[C@H](Oc3ccc(S(=O)(=O)Nc4nccs4)cc3Cl)[C@H](C)C2)c1 (relative stereo) [Example 9A, 3-chloro-4-((cis-3-methyl-1-(3-methylbenzyl)piperidin-4-yl)oxy)-N-(thiazol-2-yl)benzenesulfonamide] | – | – | – | 1.75 | – | – |
| C[C@H]1CN(Cc2ccccc2)C[C@@H]1Nc1ccc(S(=O)(=O)Nc2nccs2)cc1Cl (relative stereo) [Example 74, 4-((trans-1-benzyl-4-methylpyrrolidin-3-yl)amino)-3-chloro-N-(thiazol-2-yl)benzenesulfonamide] | 1.54 | – | 8.67 | 0.167 | 0.025 | 1.03 |
| C[C@@H](c1ccccc1)N1CC[C@H](N(C)c2cc(F)c(S(=O)(=O)Nc3cccc(F)n3)cc2Cl)C1 [Example 43, 2,2,2-trifluoroacetate] | 7.87 | – | 17.1 | 1.89 | – | – |
| C[C@@H]1C[C@@H](Oc2ccc(S(=O)(=O)Nc3nccs3)cc2Cl)CCN1Cc1ccccc1 (relative stereo) [Example 73, 4-((trans-1-benzyl-2-methylpiperidin-4-yl)oxy)-3-chloro-N-(thiazol-2-yl)benzenesulfonamide] | 5.85 | – | 13.1 | 1.88 | – | – |
| C[C@@H]1CN(Cc2ccccc2)C[C@@H]1Nc1ccc(S(=O)(=O)Nc2nccs2)cc1Cl (relative stereo) [Example 75, 4-((cis-1-benzyl-4-methylpyrrolidin-3-yl)amino)-3-chloro-N-(thiazol-2-yl)benzenesulfonamide] | 4.19 | – | 8.99 | 0.661 | – | – |
| O=S(=O)(Nc1cscn1)c1ccc(O[C@@H]2C[C@H]3CC[C@@H](C2)N3Cc2cccc(C(F)F)c2)c(Cl)c1 [Example 256, 3-chloro-4-(((1R,3s,5S)-8-(3-(difluoromethyl)benzyl)-8-azabicyclo[3.2.1]octan-3-yl)oxy)-N-(thiazol-4-yl)benzenesulfonamide] | 4.41 | 3.31 | – | – | – | – |
| Cc1cccc(CN2CC[C@@H](Oc3ccc(S(=O)(=O)Nc4nccs4)cc3Cl)[C@H](C)C2)c1 (relative stereo) [Example 9B, 3-chloro-4-((trans-3-methyl-1-(3-methylbenzyl)piperidin-4-yl)oxy)-N-(thiazol-2-yl)benzenesulfonamide] | – | – | 8.75 | 0.874 | – | – |

— patent publication US10662184B2, “Benzenesulfonamide compounds and their use as therapeutic agents” (Xenon Pharmaceuticals Inc., priority 2016, dated 2020)
